For one series, the system named is panel of 20 ion channels. It is filed as cell-based. As to the method:
This example describes a method for assaying ion channel activity in cells.
Peptides were screened in duplicate at final concentrations of 20 μM and 200 nM, as determined by amino acid analysis, and diluted into HEPES buffered physiological saline (HBPS). HEK293 or CHO cells from the American Type Culture Collection (ATCC) were transfected with the appropriate ion channel before use. HEK293 cells were grown in Dulbecco's Modified Eagle Medium/Nutrient Mixture F-12, and CHO cells were cultured in Ham's F-12 media. All cultures were supplemented with 10% fetal bovine serum, 100 U/ml penicillin G, 100 μg/ml streptomycin sulfate, and the appropriate selection antibiotics. Prior to use, cells were washed twice with Hank's Balanced Salt Solution, and treated with Accutase cell detachment solution (Sigma-Aldrich). Cells were then washed. Peptides and controls were incubated with cells for at least five minutes.
Percent inhibition was defined as: (1-(Ipeptide/Icontrol))×100%).
Percent values were calculated using the following formula: % activation=(IPeptide/Icontrol)×100%, where IPeptide is the current produced by co-application a peptide with agonist, and Icontrol refers to the current produced by stimulation in control. Control used for each ion channel is the reference compound matched to a particular channel, as illustrated in TABLE 10 below.

The next series concerns the target T1, Cav2.1 (Homo sapiens, UniProt O00555).
T1 construct: host or cells: HEK293 or CHO
Description: cell-based. Conditions: read-out: Ion channel activity (ion channel inhibition). In outline: (§1)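 Transfected HEK293 or CHO cells were exposed for at least 5 min to peptides at 200 nM and 20 μM final, tested in duplicate, in HEPES-buffered physiological saline. Activation was taken as peptide-plus-agonist current over control current ×100, and inhibition as 1 minus that ratio ×100. Each channel's control was its own reference compound.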

A further series concerns the target T2, Cav2.2 (Homo sapiens, UniProt Q00975).
T2 construct: host or cells: HEK293 or CHO
Put plainly: cell-based. Conditions: read-out: Ion channel activity (ion channel inhibition). The gist of the method:
as §1

The next series concerns the target Nav1.5 (Homo sapiens, UniProt Q14524). Put plainly: in vitro. The gist of the method:
as §1

Series [1] has as its target T3, hERG (Homo sapiens, UniProt Q12809). Put plainly: in vitro. The note with it: for activity at 20 µM: human. The gist of the method:
as §1

A further series deals with T4, Nav1.7 (Homo sapiens, UniProt Q15858).
T4 construct: host or cells: HEK293 or CHO
Put plainly: cell-based. It is filed as cell-based. The note with it: read-out: Ion channel activity (ion channel inhibition).

For series [2], the target named is T5, Nav1.5 cardiac sodium channel (human SCN5A gene) (Homo sapiens, UniProt Q14524). Conditions: read-out: IC50 Nav1.5 ion channel inhibition, TP2; human Nav1.5 in CHO cells; TP2 (inactivated state inhibition).
Series [3] deals with T5, Nav1.5 cardiac sodium channel (human SCN5A gene). Description: cell-based.
Series [4] has as its target Kv1.3 potassium channel (human KCNA3 gene) (Homo sapiens, UniProt P22001). Description: cell-based. On the set-up: host or cells: CHO. The note with it: human Kv1.3 in CHO cells.
Series [5] deals with Kv1.5 potassium channel (human KCNA5 gene) (Homo sapiens, UniProt P22460). Description: cell-based. Details: host or cells: CHO. Conditions: human Kv1.5 in CHO cells.
Chain of Kv1.5 potassium channel (human KCNA5 gene) (P22460 whole entry): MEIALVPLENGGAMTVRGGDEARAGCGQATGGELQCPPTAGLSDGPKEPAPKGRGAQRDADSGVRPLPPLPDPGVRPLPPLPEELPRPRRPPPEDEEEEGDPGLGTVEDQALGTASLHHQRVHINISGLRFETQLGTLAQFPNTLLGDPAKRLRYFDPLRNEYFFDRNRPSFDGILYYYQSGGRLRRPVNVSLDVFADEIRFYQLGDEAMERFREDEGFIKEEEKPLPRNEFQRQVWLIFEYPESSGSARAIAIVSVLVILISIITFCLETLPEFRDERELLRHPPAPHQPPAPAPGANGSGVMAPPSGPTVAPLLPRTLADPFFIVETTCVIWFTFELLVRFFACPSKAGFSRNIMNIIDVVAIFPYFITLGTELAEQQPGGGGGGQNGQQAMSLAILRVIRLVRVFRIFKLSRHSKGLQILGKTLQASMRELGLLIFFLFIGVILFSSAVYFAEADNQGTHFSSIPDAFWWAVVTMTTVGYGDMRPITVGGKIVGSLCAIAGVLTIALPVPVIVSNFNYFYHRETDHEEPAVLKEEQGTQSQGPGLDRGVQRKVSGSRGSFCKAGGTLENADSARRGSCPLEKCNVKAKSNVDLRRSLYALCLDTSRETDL
The target in series [6] is Nav1.3 sodium channel (human SCN3A gene) (Homo sapiens, UniProt Q9NY46). Description: cell-based. On the set-up: host or cells: CHO.
Chain of Nav1.3 sodium channel (human SCN3A gene) (Q9NY46 whole entry): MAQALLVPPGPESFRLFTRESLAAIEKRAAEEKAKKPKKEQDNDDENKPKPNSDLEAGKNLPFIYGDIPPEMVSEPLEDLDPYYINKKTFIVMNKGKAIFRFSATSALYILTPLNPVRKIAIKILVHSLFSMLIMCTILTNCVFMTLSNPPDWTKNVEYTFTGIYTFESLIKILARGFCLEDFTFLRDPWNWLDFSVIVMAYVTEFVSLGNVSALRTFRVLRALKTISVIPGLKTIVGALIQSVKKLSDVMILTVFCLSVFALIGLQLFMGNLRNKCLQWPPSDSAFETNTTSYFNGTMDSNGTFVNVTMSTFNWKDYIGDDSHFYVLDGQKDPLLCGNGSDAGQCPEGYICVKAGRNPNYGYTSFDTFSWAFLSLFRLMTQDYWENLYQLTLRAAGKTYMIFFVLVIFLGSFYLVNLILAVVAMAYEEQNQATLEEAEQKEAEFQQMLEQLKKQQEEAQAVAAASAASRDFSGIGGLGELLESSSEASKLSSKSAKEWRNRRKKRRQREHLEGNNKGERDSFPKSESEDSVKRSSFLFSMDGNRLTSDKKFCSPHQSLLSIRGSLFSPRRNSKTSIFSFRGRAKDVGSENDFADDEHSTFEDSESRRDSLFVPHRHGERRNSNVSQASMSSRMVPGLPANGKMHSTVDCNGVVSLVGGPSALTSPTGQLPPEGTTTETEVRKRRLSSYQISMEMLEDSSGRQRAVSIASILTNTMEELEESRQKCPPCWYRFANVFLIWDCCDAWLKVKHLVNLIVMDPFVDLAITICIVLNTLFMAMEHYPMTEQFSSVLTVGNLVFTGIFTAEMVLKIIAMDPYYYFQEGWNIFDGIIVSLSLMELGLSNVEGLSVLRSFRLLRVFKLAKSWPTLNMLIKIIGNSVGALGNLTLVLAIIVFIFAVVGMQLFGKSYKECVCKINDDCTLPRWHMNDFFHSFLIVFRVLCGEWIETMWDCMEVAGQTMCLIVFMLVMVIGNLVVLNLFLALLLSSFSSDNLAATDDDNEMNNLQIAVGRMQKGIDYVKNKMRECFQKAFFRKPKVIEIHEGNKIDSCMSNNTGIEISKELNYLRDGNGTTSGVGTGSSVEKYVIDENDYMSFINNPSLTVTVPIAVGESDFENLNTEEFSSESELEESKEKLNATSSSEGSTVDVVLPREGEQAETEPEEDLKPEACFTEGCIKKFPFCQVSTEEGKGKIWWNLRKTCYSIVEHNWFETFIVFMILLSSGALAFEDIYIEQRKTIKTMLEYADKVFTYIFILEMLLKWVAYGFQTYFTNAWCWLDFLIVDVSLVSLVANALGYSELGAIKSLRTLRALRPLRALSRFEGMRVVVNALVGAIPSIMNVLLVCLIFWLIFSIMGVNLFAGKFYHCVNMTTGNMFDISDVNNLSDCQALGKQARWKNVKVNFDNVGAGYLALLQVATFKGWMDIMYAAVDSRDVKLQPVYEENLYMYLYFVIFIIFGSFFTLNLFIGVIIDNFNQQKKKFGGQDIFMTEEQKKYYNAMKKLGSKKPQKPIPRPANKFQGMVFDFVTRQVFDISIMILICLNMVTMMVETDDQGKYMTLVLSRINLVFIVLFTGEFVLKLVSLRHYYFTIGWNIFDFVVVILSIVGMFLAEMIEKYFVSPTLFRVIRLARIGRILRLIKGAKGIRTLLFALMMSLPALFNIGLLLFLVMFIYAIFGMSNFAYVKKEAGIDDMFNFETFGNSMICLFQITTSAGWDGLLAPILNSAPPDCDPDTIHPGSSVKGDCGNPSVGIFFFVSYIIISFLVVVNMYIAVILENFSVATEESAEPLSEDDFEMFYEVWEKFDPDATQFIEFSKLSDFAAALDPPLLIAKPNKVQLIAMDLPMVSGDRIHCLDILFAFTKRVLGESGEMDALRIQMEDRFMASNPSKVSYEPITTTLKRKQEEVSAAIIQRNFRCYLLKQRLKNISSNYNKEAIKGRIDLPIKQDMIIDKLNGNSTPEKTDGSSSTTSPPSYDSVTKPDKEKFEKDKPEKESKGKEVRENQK
Series [7] has as its target Nav1.4 sodium channel (human SCN4A gene) (Homo sapiens, UniProt P35499). Put plainly: cell-based. On the set-up: host or cells: CHO. Conditions: human Nav1.4 in CHO cells.
For series [8], the target named is Nav1.7 sodium channel (human SCN9A gene) (Homo sapiens, UniProt Q15858). Put plainly: cell-based. Details: expressed in transfected cells; host or cells: CHO cells. The note with it: human Nav1.7 in CHO cells.
In the next series the target is T6, Kv1.2 (Homo sapiens, UniProt P16389).
T6 construct: host or cells: HEK293 or CHO
T6 sequence (P16389 whole entry): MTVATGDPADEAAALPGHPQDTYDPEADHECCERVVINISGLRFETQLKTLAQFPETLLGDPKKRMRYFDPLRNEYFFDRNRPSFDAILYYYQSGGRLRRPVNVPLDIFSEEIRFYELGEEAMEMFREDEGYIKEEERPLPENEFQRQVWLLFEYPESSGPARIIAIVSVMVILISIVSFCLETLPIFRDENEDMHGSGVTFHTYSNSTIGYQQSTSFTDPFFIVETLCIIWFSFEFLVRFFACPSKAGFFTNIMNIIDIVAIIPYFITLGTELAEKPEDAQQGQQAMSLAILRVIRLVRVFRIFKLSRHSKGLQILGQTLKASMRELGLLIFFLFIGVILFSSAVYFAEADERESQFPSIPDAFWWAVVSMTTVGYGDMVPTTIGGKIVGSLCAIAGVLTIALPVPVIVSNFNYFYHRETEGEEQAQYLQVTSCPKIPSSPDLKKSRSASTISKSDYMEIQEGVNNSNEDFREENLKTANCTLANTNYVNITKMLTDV
Description: cell-based. The note with it: Kv1.2, percentage of control, 100% = no change, read-out: Ion channel activity (ion channel inhibition); for activity at 20 µM: peptide at 20 μM. It is filed as cell-based. In outline: as §1

The next series concerns the target T7, Kv1.3 (Homo sapiens, UniProt P22001).
T7 construct: host or cells: HEK293 or CHO
Description: cell-based. It is filed as cell-based. The note with it: Kv1.3; peptide at 20 μM; percentage of control, 100% = no change; read-out: Ion channel activity (ion channel inhibition). The gist of the method: as §1

The target in series [9] is T3, hERG. Conditions: cited from earlier work.
In series [10] the test system is calcium channels (ryanodine receptors). The note with it: prior reports; cited from earlier work.

Read-outs that look alike come from different tables or passages of the source. Where a SMILES comes first, the peptide text is derived from it. Bridges are numbered along the chain shown (N, C = ends). Where no end group is shown, it is not given here.

One may read the IC50 as the point on the concentration scale where inhibition reaches its midpoint.

T3 sequence (Q12809 whole entry): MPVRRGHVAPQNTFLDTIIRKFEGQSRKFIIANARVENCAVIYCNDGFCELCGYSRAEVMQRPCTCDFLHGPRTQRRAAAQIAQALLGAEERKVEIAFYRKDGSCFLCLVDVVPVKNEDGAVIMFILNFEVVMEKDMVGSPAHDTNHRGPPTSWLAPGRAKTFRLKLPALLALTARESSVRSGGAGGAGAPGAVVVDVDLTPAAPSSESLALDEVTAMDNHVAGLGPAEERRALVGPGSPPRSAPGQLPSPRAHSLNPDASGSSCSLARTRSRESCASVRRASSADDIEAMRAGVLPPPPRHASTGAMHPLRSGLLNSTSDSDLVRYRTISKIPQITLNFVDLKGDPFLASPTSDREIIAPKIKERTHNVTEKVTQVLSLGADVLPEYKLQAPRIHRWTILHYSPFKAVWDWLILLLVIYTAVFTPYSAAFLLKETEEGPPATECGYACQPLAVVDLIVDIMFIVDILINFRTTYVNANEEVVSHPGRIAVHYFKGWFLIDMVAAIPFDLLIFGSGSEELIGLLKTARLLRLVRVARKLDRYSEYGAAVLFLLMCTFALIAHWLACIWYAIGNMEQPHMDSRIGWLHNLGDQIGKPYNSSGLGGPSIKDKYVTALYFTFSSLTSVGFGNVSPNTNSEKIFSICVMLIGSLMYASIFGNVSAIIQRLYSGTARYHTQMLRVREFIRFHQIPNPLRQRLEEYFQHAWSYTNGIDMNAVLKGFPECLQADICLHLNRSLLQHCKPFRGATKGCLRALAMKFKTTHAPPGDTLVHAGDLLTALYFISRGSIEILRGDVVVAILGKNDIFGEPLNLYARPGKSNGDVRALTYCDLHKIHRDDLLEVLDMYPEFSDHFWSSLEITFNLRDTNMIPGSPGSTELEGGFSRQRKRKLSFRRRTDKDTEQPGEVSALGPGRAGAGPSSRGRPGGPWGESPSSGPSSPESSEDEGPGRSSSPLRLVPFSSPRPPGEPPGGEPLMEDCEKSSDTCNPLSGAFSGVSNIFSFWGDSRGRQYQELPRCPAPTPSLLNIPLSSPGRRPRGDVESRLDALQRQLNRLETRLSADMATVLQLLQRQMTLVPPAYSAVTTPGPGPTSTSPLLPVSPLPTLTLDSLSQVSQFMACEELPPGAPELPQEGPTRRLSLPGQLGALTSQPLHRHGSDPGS
Chain of Kv1.3 potassium channel (human KCNA3 gene) (P22001 whole entry): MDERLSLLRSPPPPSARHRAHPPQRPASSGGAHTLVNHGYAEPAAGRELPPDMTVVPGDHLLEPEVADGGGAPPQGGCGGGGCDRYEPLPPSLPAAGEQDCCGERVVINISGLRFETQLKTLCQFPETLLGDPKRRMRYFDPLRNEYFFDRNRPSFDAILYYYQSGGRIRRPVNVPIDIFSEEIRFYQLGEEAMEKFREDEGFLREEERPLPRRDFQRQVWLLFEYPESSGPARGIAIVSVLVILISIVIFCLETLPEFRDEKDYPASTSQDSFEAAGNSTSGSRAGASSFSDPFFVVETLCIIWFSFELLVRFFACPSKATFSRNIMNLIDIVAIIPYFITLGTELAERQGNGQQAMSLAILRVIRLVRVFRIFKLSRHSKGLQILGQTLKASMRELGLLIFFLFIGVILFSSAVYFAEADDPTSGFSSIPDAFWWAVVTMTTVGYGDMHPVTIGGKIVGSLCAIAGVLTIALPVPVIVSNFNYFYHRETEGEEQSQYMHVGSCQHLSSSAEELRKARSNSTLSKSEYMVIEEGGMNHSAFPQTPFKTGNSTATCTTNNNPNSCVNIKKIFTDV
T7 sequence (P22001 whole entry): as above

Turning to `CC[C@H](C)[C@@H]1NC(=O)[C@H](CC(N)=O)NC(=O)[C@H](CCCNC(=N)N)NC(=O)[C@@H]2CCCN2C(=O)[C@H](Cc2c[nH]c3ccccc23)NC(=O)[C@H](CCCCN)NC(=O)[C@H](CO)NC(=O)[C@H](CCCCN)NC(=O)[C@@H]2CSSC[C@@H]3NC(=O)[C@H](CCCCN)NC(=O)CNC(=O)[C@H](Cc4c[nH]c5ccccc45)NC(=O)[C@H](Cc4ccccc4)NC(=O)[C@H](CCCNC(=N)N)NC(=O)[C@H](C(C)C)NC(=O)[C@@H](NC(=O)[C@H](CC(=O)O)NC(=O)[C@H](CO)NC(=O)CN)CSSC[C@H](NC(=O)[C@H](CSSC[C@@H](C(=O)N[C@H](C(=O)N[C@@H](Cc4c[nH]c5ccccc45)C(=O)N[C@@H](CC(=O)O)C(=O)NCC(=O)N[C@@H](CO)C(=O)N[C@H](C(=O)NCC(=O)O)C(C)C)C(C)C)NC1=O)NC(=O)[C@H](CC(=O)O)NC(=O)[C@H](CO)NC(=O)[C@H]([C@@H](C)O)NC(=O)[C@H](CCC(N)=O)NC(=O)[C@H](CO)NC3=O)C(=O)N1CCC[C@H]1C(=O)N[C@@H](Cc1c[nH]cn1)C(=O)N[C@@H](CC(C)C)C(=O)N[C@@H](C)C(=O)N2` [SEQ ID NO: 7], the “Inhibition of voltage-sensitive calcium channels” value with panel of 20 ion channels is “inhibited voltage-sensitive calcium channels”. Besides, the activity at 20 µM at Cav2.1, at Cav2.2, at Nav1.5, at hERG [1] and at Nav1.7 was under 50% each time.
As for `CC[C@H](C)[C@@H]1NC(=O)[C@H](CCC(=O)O)NC(=O)[C@H](CCCNC(=N)N)NC(=O)[C@H](CCCNC(=N)N)NC(=O)[C@@H]2CSSC[C@@H](C(=O)N[C@@H](Cc3ccc(O)cc3)C(=O)N[C@@H](CCCNC(=N)N)C(=O)N[C@@H](CC(N)=O)C(=O)O)NC(=O)[C@H](C(C)C)NC(=O)[C@@H]3CSSC[C@H](NC(=O)[C@H](CO)NC(=O)CNC(=O)CNC(=O)[C@H](CCC(N)=O)NC(=O)[C@@H](NC(=O)[C@H](CCCCN)NC(=O)[C@@H](NC(=O)[C@H](CC(N)=O)NC(=O)[C@@H](NC(=O)[C@H](CCC(N)=O)NC(=O)[C@@H](NC(=O)[C@H](CCC(N)=O)NC(=O)[C@H](CO)NC(=O)CN)C(C)C)[C@@H](C)O)C(C)C)CSSC[C@H](NC(=O)[C@H](CCCCN)NC(=O)CNC(=O)[C@H](C)NC(=O)[C@H](C)NC(=O)[C@H](C(C)C)NC(=O)CNC1=O)C(=O)N[C@@H]([C@@H](C)CC)C(=O)N[C@@H](CC(N)=O)C(=O)NCC(=O)N[C@@H](CCCCN)C(=O)N3)C(=O)N[C@@H](C)C(=O)N[C@@H](CO)C(=O)N[C@@H](C(C)C)C(=O)N2` [SEQ ID NO: 10] (H-GSQVQTNVKCQGGSCASVCRREIGVAAGKCINGKCVCYRN-OH; disulfide 10-30, 15-35, 19-37), the IC50 in [2] is over 1 µM; in series [3] it was over 1 µM; in series [4] (test pulse TP1, read-out: IC50 Kv1.3 ion channel inhibition, TP1) it was over 1 µM; in series [4] (test pulse TP6, read-out: IC50 Kv1.3 ion channel inhibition, TP6), over 1 µM; in [5] (test pulse TP1, read-out: IC50 Kv1.5 ion channel inhibition, TP1) it was over 1 µM; in series [5] (test pulse TP6, read-out: IC50 Kv1.5 ion channel inhibition, TP6) it was over 1 µM. Also, the IC50 in [6] (human Nav1.3 in CHO cells, TP1 (tonic inhibition), read-out: IC50 Nav1.3 ion channel inhibition, TP1) is over 1 µM; in [6] (human Nav1.3 in CHO cells, TP2 (inactivated state inhibition), read-out: IC50 Nav1.3 ion channel inhibition, TP2), over 1 µM; in series [7] (TP1 (tonic inhibition), read-out: IC50 Nav1.4 ion channel inhibition, TP1), over 1 µM; in series [7] (TP2 (inactivated state inhibition), read-out: IC50 Nav1.4 ion channel inhibition, TP2), over 1 µM; in series [8] (TP1 (tonic inhibition), read-out: IC50 Nav1.7 ion channel inhibition, TP1), over 1 µM; in series [8] (TP2 (inactivated state inhibition), read-out: IC50 Nav1.7 ion channel inhibition, TP2) it was over 1 µM.
Take `CC[C@H](C)[C@H](NC(=O)[C@H](CC(=O)O)NC(=O)[C@@H](NC(=O)[C@@H]1CCCN1C(=O)[C@H](CCCNC(=N)N)NC(=O)[C@H](CO)NC(=O)CN)[C@@H](C)O)C(=O)N[C@@H](CCCCN)C(=O)N[C@H]1CSSC[C@@H]2NC(=O)[C@H](CCCNC(=N)N)NC(=O)CNC(=O)[C@H](CC(N)=O)NC(=O)[C@H]([C@@H](C)O)NC(=O)[C@H](CCCCN)NC(=O)CNC(=O)[C@H](Cc3ccccc3)NC(=O)[C@H](CCCNC(=N)N)NC(=O)[C@H](CO)NC(=O)[C@H](CCCCN)NC(=O)[C@@H]3CSSC[C@@H](C(=O)N[C@@H](Cc4ccccc4)C(=O)O)NC(=O)[C@H](CC(=O)O)NC(=O)[C@H](CSSC[C@H](NC(=O)[C@H](CCC(N)=O)NC(=O)[C@H](Cc4ccc(O)cc4)NC(=O)[C@H](CO)NC(=O)[C@H](C)NC(=O)[C@H](CO)NC1=O)C(=O)N[C@@H](Cc1ccccc1)C(=O)N1CCC[C@H]1C(=O)N[C@@H](C(C)C)C(=O)N3)NC(=O)[C@H](CC(C)C)NC(=O)CNC(=O)[C@H](CC(N)=O)NC(=O)[C@H](C(C)C)NC2=O` [SEQ ID NO: 17] (H-GSRPTDIKCSASYQCFPVCKSRFGKTNGRCVNGLCDCF-OH; disulfide 9-30, 15-35, 19-37): at hERG [1] (0.2 or 20 μM, FIG. 2), the “Activity against / inhibition of hERG (Kv11.1)” value is on record as “confirmed hERG inhibition”. Further, the activity at 20 µM at hERG [1], at Kv1.2 and at Kv1.3 was under 50% throughout. Further, the “hERG inhibition or binding, previously reported” value on hERG [9] was “previously been demonstrated to bind to hERG”.
Turning to `NC1=N[C@H](O)[C@H]2[C@H]3O[C@]4(O)O[C@@H]([C@@H](O)[C@@]2(N1)[C@@H]4O)[C@]3(O)CO` [TTX, Tetrodotoxin, reference compound], the IC50 in series [6] (read-out: IC50 Nav1.3 ion channel inhibition, TP1) amounted to 0.033 µM; in series [6] (read-out: IC50 Nav1.3 ion channel inhibition, TP2), 0.028 µM.
As for “GSDRDSCIDKSRCSKYGYYQECQDCCKKAGHNGGTCMFFKCKCA (disulfide 7-25, 13-36, 22-41, 26-43) [SEQ ID NO: 14]”, the “Activity on potassium channels” value in the series with panel of 20 ion channels (potassium channels of the panel, 0.2 or 20 μM, FIG. 2) is “showed activity against additional potassium channels”. In addition, the activity at 20 µM at hERG [1] and at Kv1.2 was under 50% each time. For the same compound, on Kv1.2 (peptide at 0.2 μM), the activity at 0.2 µM was under 80%. Further, on hERG [9], the “hERG inhibition or binding, previously reported” value is “previously reported to inhibit hERG channels”.
For “GSGDCLPHLKRCKENNDCCSKKCKRRGANPEKRCR [SEQ ID NO: 11]”, the “Activity against additional potassium channels or serotonin receptors (e.g., 5-HT3a)” value with panel of 20 ion channels (0.2 or 20 μM, FIG. 2) is “showed activity against additional potassium channels or serotonin receptors (e.g., 5-HT3a)”. Further, the “Inhibition of calcium channels (ryanodine receptors), reported” value in series [10] is given as “reported to inhibit calcium channels (ryanodine receptors)”.
Consider “GSSEKDCIKHLQRCRENKDCCSKKCSRRGTNPEKRCR [SEQ ID NO: 3]”, for which, in the series on panel of 20 ion channels (0.2 or 20 μM, FIG. 2), the “Activity against additional potassium channels or serotonin receptors (e.g., 5-HT3a)” value was “showed activity against additional potassium channels or serotonin receptors (e.g., 5-HT3a)”. Further, the “Inhibition of calcium channels (ryanodine receptors), reported” value in series [10] is given as “reported to inhibit calcium channels (ryanodine receptors)”.
